Assay results as given in PMC10980815, “Cell surface patching via CXCR4-targeted nanothreads for cancer metastasis inhibition” (Nature Communications, 2024).
Ends that are not written are not given here.

Key:
[1] = test system: orthotopic 4T1 breast tumors; assay: Tumor-infiltrating CD8+ T lymphocytes, Tregs and MDSCs (flow cytometry); format: in vivo, female BALB/c mice; conditions: for CD3+CD8+ T cells (%) in tumor / CD11b+Gr1+ MDSCs (%) in tumor / Tregs (%) in CD4+ T cells: Supplementary Fig. 16b
Protocol: 4T1 cells (1 × 10^6 cells) were injected into the third mammary fat pad of female BALB/c mice (6–8-week). When tumor volumes reached nearly […] on day 7 after tumor inoculation, mice were randomly divided into 8 groups (n = 8 per group). For four groups without laser irradiation (−), mice were intravenously injected with the following samples: (1) saline on day 7, 14, 21, and 28, (2) P-PS on day 7, 14, 21, and 28, (3) P-BS-PS on day 7, 14, 21, and 28, or (4) P-BS-CM1 on day 7, 14, 21, and 28, followed by P-PS-CM2 on day 8, 15, 22, and 29 (5 mg/kg BS equivalence, CM1:CM2 1:1 mol%, 2.5 mg/kg PS equivalence), respectively. For four groups with laser irradiation (+), mice were treated with the same regimens and irradiated at 650 nm laser (580 mW/cm^2, 5 min) on day 9, 16, 23 and 30. Tumor volumes and mice survivals were recorded every other day. For the investigation of immune response and lung metastasis, 4T1 tumor-bearing female BALB/c mice (6–8-week, tumor volume~100 mm^3) were randomly divided into 8 groups (n = 5 per group) and given three rounds of above treatments. On day 28, lungs and tumors were harvested. lungs were fixed with Bouin’s solution. The pulmonary metastatic nodules were counted and analyzed by hematoxylin-eosin staining. Single-cell suspensions of tumor tissues were stained with anti-CD45-PerCP/Cy5.5 (1:300 dilution) and anti-calreticulin recombinant rabbit monoclonal antibody (1:500 dilution) at 4 °C for 1 h, and then stained with goat anti-rabbit IgG H&L Alexa Fluor® 647 (1:1000 dilution, 4 °C, 45 min), followed by flow cytometry analysis. ATP and HMGB1 concentrations in the supernatant of cell suspension were measured using a luciferase-based ATP assay kit and a mouse HMGB1 ELISA kit, respectively. Single-cell suspensions of tumors were stained with FITC anti-mouse CD3 antibody (1:300 dilution), PerCP/Cyanine5.5 anti-mouse CD4 antibody (1:300 dilution), anti-CD8α-APC (1:300 dilution), and anti-Foxp3-PE (1:300 dilution) for flow cytometry analysis of T cell subtypes (CD8^+ T cells, CD4^+ effector T cells, and Foxp3^+ regulatory T cells), and stained with PE anti-mouse/human CD11b antibody (1:300 dilution) and FITC anti-mouse Ly-6G/Ly-6C (Gr-1) antibody (1:300 dilution) for flow cytometry analysis of MDSCs (CD11b^+Gr1^+). Cytotoxic T cells in tumor tissues were investigated with immunofluorescent staining of IFN-γ and flow cytometry analysis using anti-IFN-γ-PE (1:300 dilution). For CD8-depletion assay, 4T1 tumor-bearing female BALB/c mice (6–8-week, tumor volume~100 mm^3) were randomly divided into 3 groups (n = 8 per group). Mice were intravenously given four doses of P-BS-CM1 on day 7, 14, 21 and 28, combined with P-PS-CM2 on day 8, 15, 22 and 29 (5 mg/kg BS equivalence, CM1:CM2 1:1 mol%, 2.5 mg/kg PS equivalence) in the presence or absence of InvivoMab anti-mouse CD8α (100 μg/mice). Mice were irradiated at 650 nm laser (580 mW/cm^2, 5 min) on day 9, 16, 23 and 30. Tumor volumes and mice survivals were recorded every other day.

CXCR4 = target: T1, CXCR4 (Mus musculus, UniProt P70658); assay: Dose-dependent chemokine receptor occupation assay; format: binding, 4T1 murine cells; conditions: 4T1 cells, 0.1 nM to 1 mM, 25 °C, 1 h; unoccupied receptor stained with PE antibody
T1 construct: endogenous in cells; host or cells: 4T1 murine breast cancer cells
Protocol: (§1) To validate the specificity of the BS (CXCR4-binding sequence) to CXCR4, a dose-dependent chemokine receptors occupation assay and a chemokine receptors competitive binding assay were conducted. […] Unoccupied chemokine receptors (CXCR4, CXCR7, CXCR2, CXCR5, and CCR4) on cell surface were stained with PE anti-human CD184/CXCR4 Antibody (1:300 dilution), anti-CXCR7-PE (1:300 dilution), anti-CXCR2-PE (1:300 dilution), anti-CXCR5-PE (1:300 dilution), and PE anti-human CD194/CCR4 Antibody (1:300 dilution) at 4 °C for 1 h, prior to flow cytometry analysis. In the chemokine receptors competitive binding assay, 4T1 cells (5 × 10^5 cells) were pre-blocked with PE anti-human CD184/CXCR4 Antibody (1:300 dilution), anti-CXCR7-PE (1:300 dilution), anti-CXCR2-PE (1:300 dilution), anti-CXCR5-PE (1:300 dilution), and PE anti-human CD194/CCR4 Antibody (1:300 dilution) at 4 °C for 1 h. Subsequently, these cells were treated with P-Cy5-BS-CM1-Cy5 (5 nM Cy5 equivalence) for 1 h. Following the treatments, cells were washed three times with PBS and subjected to flow cytometry analysis.

CXCR7 = target: T2, CXCR7 (Mus musculus, UniProt P56485); assay: Dose-dependent chemokine receptor occupation assay; format: binding, 4T1 murine cells; conditions: 4T1 cells, 0.1 nM to 1 mM, 1 h
T2 construct: endogenous in cells; host or cells: 4T1 murine breast cancer cells
Protocol: as §1

[2] = test system: orthotopic 4T1 breast tumors; assay: Spontaneous lung metastasis model: tumor volume and pulmonary metastatic nodules; format: in vivo, female BALB/c mice
Protocol: For the in vivo investigation of pulmonary metastasis, 4T1 cells (1 × 10^6 cells) were injected into the third mammary fat pad of female BALB/c mice (6–8 weeks). […] Tumor volumes were recorded every other day. On day 28, lungs were harvested and fixed with Bouin’s solutions. The pulmonary metastatic nodules were counted and analyzed by hematoxylin-eosin staining.

[3] = target: T3, Cy5-labeled P-BS-CM1 (P-BS-CM1-Cy5) (cysteines embedded within BS joined to maleimides of the HPMA copolymer backbone (thiol-ene click chemistry) | N-terminal cysteine joined to a maleimide of the HPMA copolymer backbone (thiol-ene …)); assay: FRET or BRET; conditions: both partners purified
T3 construct: copies: 6 + 4
T3 chain 1: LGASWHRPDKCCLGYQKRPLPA
T3 chain 2: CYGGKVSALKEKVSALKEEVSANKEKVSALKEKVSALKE

Nanothread-1 (P-BS-CM1) = target: T4, Nanothread-1 (P-BS-CM1) (not fully specified; cysteines embedded within BS joined to maleimides of the HPMA copolymer backbone (thiol-ene click chemistry) | N-terminal cysteine joined to a maleimide of the HPMA copolymer …); assay: circular dichroism; P-BS-CM1, P-CM2 and their mixtures (CM1:CM2 3:1, 1:1, 1:3), total polymer 10 mg/mL, 10 mM PBS pH 7.4, 25 °C, 10 min; conditions: both partners purified
T4 construct: source: synthetic peptides grafted on HPMA copolymer (P-Mal), dialysis and lyophilization; copies: 6 + 4
T4 chain 1: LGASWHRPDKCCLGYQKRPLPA
T4 chain 2: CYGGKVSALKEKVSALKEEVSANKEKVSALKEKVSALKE

T2 sequence (P56485 whole entry): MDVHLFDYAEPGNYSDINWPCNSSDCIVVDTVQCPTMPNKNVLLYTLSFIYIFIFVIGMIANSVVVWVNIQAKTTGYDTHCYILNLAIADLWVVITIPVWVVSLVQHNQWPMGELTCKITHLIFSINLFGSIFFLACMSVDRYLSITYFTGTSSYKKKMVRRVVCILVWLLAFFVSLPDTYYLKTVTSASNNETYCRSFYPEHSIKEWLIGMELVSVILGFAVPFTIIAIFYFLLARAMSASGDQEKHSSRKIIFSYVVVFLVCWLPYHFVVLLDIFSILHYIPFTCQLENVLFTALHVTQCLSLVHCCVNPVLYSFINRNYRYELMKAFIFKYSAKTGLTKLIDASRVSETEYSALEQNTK
T1 sequence (P70658 whole entry): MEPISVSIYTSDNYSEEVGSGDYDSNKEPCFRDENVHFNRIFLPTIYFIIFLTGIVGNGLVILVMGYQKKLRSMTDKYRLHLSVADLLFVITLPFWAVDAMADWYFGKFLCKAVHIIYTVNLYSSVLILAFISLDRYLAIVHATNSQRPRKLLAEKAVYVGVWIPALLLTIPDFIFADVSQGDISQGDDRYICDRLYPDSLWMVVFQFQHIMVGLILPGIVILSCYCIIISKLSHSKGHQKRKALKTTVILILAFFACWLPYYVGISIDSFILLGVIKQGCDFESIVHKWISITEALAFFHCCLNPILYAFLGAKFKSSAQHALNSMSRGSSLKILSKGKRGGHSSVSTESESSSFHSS

c1cc(CN2CCCNCCNCCCNCC2)ccc1CN1CCCNCCNCCCNCC1 [AMD3100, reference compound]
CD3+CD8+ T cells (%) in tumor ([1]; 2 mg/kg, replicate 1 of 5): 0.1606%
CD11b+Gr1+ MDSCs (%) in tumor ([1]; 2 mg/kg, replicate 1 of 5): 22.12%
Tregs (%) in CD4+ T cells ([1]; 2 mg/kg, replicate 1 of 5): 12.05%
CD3+CD8+ T cells (%) in tumor ([1]; 2 mg/kg, replicate 2 of 5): 0.2296%
CD11b+Gr1+ MDSCs (%) in tumor ([1]; 2 mg/kg, replicate 2 of 5): 21.04%
Tregs (%) in CD4+ T cells ([1]; 2 mg/kg, replicate 2 of 5): 13.02%
CD3+CD8+ T cells (%) in tumor ([1]; 2 mg/kg, replicate 3 of 5): 0.134%
CD11b+Gr1+ MDSCs (%) in tumor ([1]; 2 mg/kg, replicate 3 of 5): 19.16%
Tregs (%) in CD4+ T cells ([1]; 2 mg/kg, replicate 3 of 5): 16.28%
CD3+CD8+ T cells (%) in tumor ([1]; 2 mg/kg, replicate 4 of 5): 0.1643%
CD11b+Gr1+ MDSCs (%) in tumor ([1]; 2 mg/kg, replicate 4 of 5): 20.68%
Tregs (%) in CD4+ T cells ([1]; 2 mg/kg, replicate 4 of 5): 11.04%
CD3+CD8+ T cells (%) in tumor ([1]; 2 mg/kg, replicate 5 of 5): 0.1515%
CD11b+Gr1+ MDSCs (%) in tumor ([1]; 2 mg/kg, replicate 5 of 5): 18.7%
Tregs (%) in CD4+ T cells ([1]; 2 mg/kg, replicate 5 of 5): 18.84%
CD3+CD8+ T cells (%) in tumor ([1]; 5 mg/kg, replicate 1 of 5): 0.2311%
CD11b+Gr1+ MDSCs (%) in tumor ([1]; 5 mg/kg, replicate 1 of 5): 16.63%
Tregs (%) in CD4+ T cells ([1]; 5 mg/kg, replicate 1 of 5): 7.21%
CD3+CD8+ T cells (%) in tumor ([1]; 5 mg/kg, replicate 2 of 5): 0.1528%
CD11b+Gr1+ MDSCs (%) in tumor ([1]; 5 mg/kg, replicate 2 of 5): 14.04%
Tregs (%) in CD4+ T cells ([1]; 5 mg/kg, replicate 2 of 5): 6.69%
CD3+CD8+ T cells (%) in tumor ([1]; 5 mg/kg, replicate 3 of 5): 0.1403%
CD11b+Gr1+ MDSCs (%) in tumor ([1]; 5 mg/kg, replicate 3 of 5): 15.32%
Tregs (%) in CD4+ T cells ([1]; 5 mg/kg, replicate 3 of 5): 12.48%
CD3+CD8+ T cells (%) in tumor ([1]; 5 mg/kg, replicate 4 of 5): 0.2195%
CD11b+Gr1+ MDSCs (%) in tumor ([1]; 5 mg/kg, replicate 4 of 5): 14.1%
Tregs (%) in CD4+ T cells ([1]; 5 mg/kg, replicate 4 of 5): 10.38%
CD3+CD8+ T cells (%) in tumor ([1]; 5 mg/kg, replicate 5 of 5): 0.1508%
CD11b+Gr1+ MDSCs (%) in tumor ([1]; 5 mg/kg, replicate 5 of 5): 16%
Tregs (%) in CD4+ T cells ([1]; 5 mg/kg, replicate 5 of 5): 8.46%
tumor-infiltrating CD8+ T cells ([1]; day 28, AMD3100 i.p. daily 2 or 5 mg/kg, nanothreads weekly i.v.): remained low
CXCR4 occupation (CXCR4): occupied CXCR4
CXCR7 occupation (CXCR7): low affinity
Number of metastatic nodules ([2]; 2mg/kg, replicate 1): 31
Number of metastatic nodules ([2]; 2mg/kg, replicate 2): 32
Number of metastatic nodules ([2]; 2mg/kg, replicate 3): 20
Number of metastatic nodules ([2]; 2mg/kg, replicate 4): 20
Number of metastatic nodules ([2]; 2mg/kg, replicate 5): 18
Number of metastatic nodules ([2]; 5mg/kg, replicate 1): 12
Number of metastatic nodules ([2]; 5mg/kg, replicate 2): 14
Number of metastatic nodules ([2]; 5mg/kg, replicate 3): 15
Number of metastatic nodules ([2]; 5mg/kg, replicate 4): 9
Number of metastatic nodules ([2]; 5mg/kg, replicate 5): 12
primary tumor growth ([2]; nanothreads weekly i.v. x3, AMD3100 i.p. daily 2 or 5 mg/kg day 7-27): dose-dependent anti-tumor activity

B1: Cy3-labeled P-CM2 (P-CM2-Cy3) (other)
peptide: C(HPMA copolymer)YGGEVSALEKEVSALEKKNSALEKEVSALEKEVSALEK
modifications: also: Cy3 label on conjugate, position not given here
notes: copies: 12
binding result [3]: binds

B2: HPMA copolymer-CM2 conjugate (P-CM2) (other)
peptide: CYGGEVSALEKEVSALEKKNSALEKEVSALEKEVSALEK
modifications: not fully specified (residue 1)
notes: source: synthetic peptide grafted on HPMA copolymer (P-Mal), dialysis and lyophilization; copies: 12
binding result (Nanothread-1 (P-BS-CM1)): binds
